Literature values, collected in patent US20180235982A1, “Treatment for Spirochete borne illness” (priority 2017, published 2018).

Conditions: no species, matrix or method given

Compound: CN(C)c1ccc(O)c2c1C[C@H]1C[C@H]3[C@H](N(C)C)C(O)=C(C(N)=O)C(=O)[C@@]3(O)C(O)=C1C2=O [Minocycline]
- half-life: 12 to 14 h
